Experimental data: US12582670B2, “Lignin solvation using aqueous biologically compatible buffers” (priority 2019, dated 2026)
Entries after “also recorded” stand apart in the source; their conditions may differ.

Tests used:
[1] = tested on: S. aureus UAMS-1 (methicillin-sensitive, MSSA); test: β-lactam disk diffusion susceptibility test; assay type: cell-based, Staphylococcus aureus; conditions: disks 0.2 μg oxacillin, 2 μg ampicillin, 2 μg penicillin, 24 h
Procedure: (§1) Example 9. β-lactam disk diffusion susceptibility test. […] Methicillin-susceptible and methicillin-resistant S. aureus, UAMS-1 and LAC-13C, respectively, were streaked for isolation on tryptic soy agar (TSA) plates and incubated for 24 hours at 37° C. Overnight cultures were prepared by picking a single colony of each strain from its plate and adding to separate 3 mL sterile tryptic soy broth (TSB) in a 5 mL culture tube and incubating 14-16 h at 37° C. and 250 rpm. Next, the optical density at 600 nm (OD600) was measured to prepare fresh 50 mL cultures with OD600=0.1 to be grown for 2-3 hours at 37° C. and 250 rpm. Cultures were pelleted by centrifugation at 4500 rpm, then resuspended and concentrated in 500 μL sterile 1× Hank's Balanced Salt Solution (HBSS). […] To achieve lawn-style growth, cells were spread across the plates with sterile glass beads.

[2] = tested on: S. aureus LAC-13C (methicillin-resistant, MRSA); test: β-lactam disk diffusion susceptibility test; assay type: cell-based, Staphylococcus aureus; conditions: disks 1 μg oxacillin, 10 μg ampicillin, 10 μg penicillin, 24 h
Procedure: as §1

[3] = tested on: S. agalactiae (NCTC 8181); test: β-lactam disk diffusion susceptibility test with and without lignin; assay type: cell-based, Streptococcus agalactiae; conditions: disks 10 μg penicillin, 10 μg ampicillin, 30 μg amoxicillin+clavulanic acid, 24 h
Procedure: (§2) Example 13. Sensitivity of S. agalactiae and S. uberis to β-lactams and lignin. Type strains of S. agalactiae and S. uberis Diemhofer (NCTC 8181 and NCTC 3858, respectively) were obtained from the American Type Culture Collection (ATCC) as lyophilized pellets. Cells were revived by resuspension in 5 mL Todd Hewitt broth (THB, 3% w/v) and static incubation for 24 h at 37° C. Culture OD600 was measured and the volume to achieve OD600=0.025 was added to 50 mL fresh THB in 250 mL Erlenmeyer flasks and grown for 2 hours; S. agalactiae cultures were supplemented with 1 μM hemin and 10 μM menaquinone and grown at 37° C. and 200 rpm, while S. uberis was grown statically at 37° C. Cultures were centrifuged at 4500 rpm for 10 minutes. Due to differences in pellet sizes, S. agalactiae pellets were resuspended in 1 mL Hank's Balanced Salt Solution (HBSS), and S. uberis pellets were resuspended in 400 μL HBSS in order to normalize the OD600 of the two cell suspensions. […] Paper disks containing 10 μg penicillin, 10 μg ampicillin, and 30 μg amoxicillin+clavulanic acid (Oxoid, Basingstoke, UK) were placed on the agar, then incubated for 24 h at 37° C. Plates were inspected for zones of clearance around the disks indicating susceptibility.

[4] = tested on: S. uberis Diemhofer (NCTC 3858); test: as above; assay type: cell-based, Streptococcus uberis; conditions: disks 10 μg penicillin, 10 μg ampicillin, 30 μg amoxicillin+clavulanic acid, 24 h
Procedure: as §2

S. aureus UAMS-1 = test: Tunicamycin disk diffusion assay; assay type: cell-based, Staphylococcus aureus; conditions: 2 μg disk, 24 h
Procedure: Tunicamycin disk diffusion assay: S. aureus UAMS-1 cultures were prepared by inoculating separate 15-mL culture tubes containing 3 mL sterile 3% (w/v) TSB with a single colony and incubated 14-16 h at 37° C. while shaking at 250 rpm. Fresh 50-mL cultures with an initial OD600=0.025 were prepared and incubated for 2 h at 37° C. and 250 rpm. Cells were collected by centrifugation at 4,500 rpm and resuspended in 500 μL sterile Hank's Balanced Salt Solution (HBSS; Corning, Corning, NY). […] Cells were spread across the plates with sterile glass beads and the plates were left open to dry in a clean laminar-flow hood for 10-15 min. […] Three biological replicates were analyzed.

[5] = TSA with 50 mM MOPS and 5 mg/mL lignin
[6] = TSA without lignin (50 mM MOPS)
[7] = in the presence of 5 mg/mL lignin

| Molecule | susceptibility (zone of clearance around disk) [1, 5] | susceptibility (zone of clearance around disk) [1, 6] | susceptibility (zone of clearance around disk) [2, 5] | sensitivity (zone of clearance around disk) [3, 7] | sensitivity (zone of clearance around disk) ([3]; without lignin (50 mM MOPS)) | sensitivity (zone of clearance around disk) [4, 7] | sensitivity (zone of clearance around disk) ([4]; without lignin (50 mM MOPS)) | zone of clearance around disk (S. aureus UAMS-1; TSA with 50 mM MOPS + 5 mg/mL lignin) | zone of clearance around disk (S. aureus UAMS-1; TSA with 50 mM MOPS + 5 mg/mL lignin, listed as Tunicamycin) | zone of clearance around disk (S. aureus UAMS-1; TSA with 50 mM MOPS, no lignin) | zone of clearance around disk (S. aureus UAMS-1; TSA with 50 mM MOPS, no lignin, listed as Tunicamycin) | susceptibility (zone of clearance around disk) [2, 6] |
| --- | --- | --- | --- | --- | --- | --- | --- | --- | --- | --- | --- | --- |
| penicillin | at least partially sensitive/susceptible; also recorded: increased sensitivity/susceptibility | completely or nearly completely resistant; also recorded: moderately resistant | increased sensitivity/susceptibility | highly sensitive | some susceptibility; also recorded: moderately sensitive | highly sensitive | some susceptibility; also recorded: moderately sensitive | – | – | – | – | – |
| amoxicillin+clavulanic acid | – | – | – | highly sensitive | some susceptibility; also recorded: moderately sensitive | highly sensitive | some susceptibility; also recorded: moderately sensitive | – | – | – | – | – |
| tunicamycin | – | – | – | – | – | – | – | susceptibility | a clearance zone was observed | tolerance of the antibiotic | No clearance zone was observed | – |
| CC1(C)S[C@@H]2[C@H](NC(=O)[C@H](N)c3ccccc3)C(=O)N2[C@H]1C(=O)O [ampicillin] | at least partially sensitive/susceptible; also recorded: increased sensitivity/susceptibility | completely or nearly completely resistant; also recorded: moderately resistant | increased sensitivity/susceptibility | highly sensitive | some susceptibility; also recorded: moderately sensitive | highly sensitive | some susceptibility; also recorded: moderately sensitive | – | – | – | – | – |
| Cc1onc(-c2ccccc2)c1C(=O)N[C@@H]1C(=O)N2[C@@H]1SC(C)(C)[C@@H]2C(=O)O [oxacillin] | increased sensitivity/susceptibility | sensitive/susceptible | sensitive; also recorded: increased sensitivity/susceptibility | – | – | – | – | – | – | – | – | completely resistant |
